The text below walks through data of publication PMC6332093, “Development of Radiolabeled Membrane Type-1 Matrix Metalloproteinase Activatable Cell Penetrating Peptide Imaging Probes” (Molecules, 2015).

Like-named read-outs stand apart in the source and are kept apart here. Square brackets hold non-standard residues; d marks the D form. Peptide text beside a SMILES is read from it. * marks the point of attachment. DOTA = O=C(O)CN1CCN(CC(=O)O)CCN(CC(=O)*)CCN(CC(=O)O)CC1; AEA = NCCOCC(=O)O

A short description of series [1]: Biodistribution in mouse model of myocardial infarction. Particulars: iv, total radioactivity, 5 h post-injection; for tissue uptake at 5 h: 10 nmol i.v., mean ± SD. The series is classed as in vivo. The protocol: An in vivo pilot study was performed to assess the in vivo biodistribution of ACPP-B and CPP-B, 5 h post-injection, in a mouse model of myocardial infarction (MI). The conditions were similar to the earlier study with the MMP-2/9 sensitive probe ^177Lu/^125I-ACPP-2/9 [1] to facilitate comparison. We aimed to characterize the in vivo biodistribution of ACPP-B using a dual-isotope approach with ^177Lu, labeled to the polycationic domain, and ^125I, labeled to the polyanionic domain, as orthogonal radiolabels (see Supplemental Information for performed iodination procedures). […] Unfortunately, a >95% radiochemical purity could not be achieved by solid phase extraction (Figure S5), and desalting strategies to remove ^125I could not be applied due to the low molecular weight of the peptide. Therefore, re-design of the ACPP-B peptide structure, to prevent side-reactions during iodination, may enable dual-isotope studies. Hereto, the cysteine residue can be acetylated, but oxidation of the sulfur atom may still occur. Furthermore, this conversion results in a more hydrophobic residue that may impact the MT1-MMP sensitivity of the probe. Substitution of the cysteine by a serine residue will possibly be a more attractive option. Alternatively, iodine may be introduced specifically to the N-terminus via coupling of a ^125I-SHPP moiety (following a similar approach as proposed for iodination of ACPP-C (Figure 1)).
(§1) Here, a single isotope labeled probe ^177Lu-ACPP-B was employed in a pilot in vivo study.
MI was induced by permanent ligation of the left anterior descending coronary artery (LAD) using published procedures. In short, animals were subcutaneously injected with buprenorphine (0.1 mg/kg) and 30 min later anesthetized with isoflurane. Animals were intubated and ventilated with 100% oxygen with a rodent respirator. After left thoracotomy between ribs four and five, the LAD was ligated with a 6–0 prolene suture. The chest and skin were closed with 5–0 silk sutures. The animal’s temperature was continuously measured rectally and maintained at 36.5–37.5 °C during surgery. After surgery, animals were allowed to recover at 30 °C overnight.
(§2) Biodistribution experiments were performed on MI-mice (n = 5 per probe) by i.v.-injection of ^177Lu-ACPP-B (10 nmol/100 µL, ca. 4.0 MBq ^177Lu), or ^177Lu-CPP-B (10 nmol/100 µL, ca. 4.0 MBq ^177Lu). For animals injected with ^177Lu-ACPP-B, blood samples were withdrawn from the vena saphena at selected time points (3, 9, 27, and 81 min), weighed, and diluted to 1 mL with MilliQ water. The mice were anesthetized with isoflurane 5 h after i.v.-injection, subjected to 2% (w/v) Evans Blue i.v.-injection (50 mg/kg) and sacrificed 2 min later by cervical dislocation. Organs and tissues of interest were harvested and weighed. The hearts were cooled to 4 °C, cut in 1 mm slices from apex to base. Infarct, border, and remote areas were isolated based on Evans Blue staining. The ^177Lu radioactivity of all samples was measured in a γ-counter (Wizard 1480; PerkinElmer) along with standards to determine the injected dose per gram (%ID/g). The energy window was set to 155–380 keV. The average probe concentration at time 0 (C0) was calculated by fitting the blood clearance data to the 2-phase exponential decay function Y = span1 × exp(−K1 × X) + span2 × exp(−K2 × X) + Plateau using GraphPad Prism. The area under the curve (AUC) was determined and the blood half-life, the time point at which the AUC reaches 50% of the total AUC, was subsequently derived using MatLab. The average volume of distribution was calculated using the formula VD = dose/(mean body weight × C0) [L/kg].

The nature of the next series: in vivo. The following applies: mouse; for tissue uptake: 10 nmol, total radioactivity. How it is done: as §1
Figure 6 Blood kinetics of ^177Lu-ACPP-B in MI-mice (n = 3). The data are mean %ID/g ± SD and fitted to the 2-phase exponential decay function Y = span1 × exp(−K1 × X) + span2 × exp(−K2 × X) + Plateau. Span1 = 2.61%ID/g, K1 = 1.99 min^−1, Span2 = 7.35%ID/g, K2 = 27.1 min^−1.
as §2

The mark [2] stands for this setting: blood, MI-mice 10 days after MI, γ-counting, n = 5, read-out: Biodistribution, Blood.
The mark [3] stands for this setting: brain, MI-mice, n = 5, read-out: Biodistribution, Brain.
[4] abbreviates: fat, MI-mice, n = 5, read-out: Biodistribution, Fat.
[5] abbreviates: heart, infarct area, MI-mice, n = 5, read-out: Biodistribution, Heart, infarct.
Where [6] appears, read: heart, remote myocardium, MI-mice, n = 5, read-out: Biodistribution, Heart, remote.
Where [7] appears, read: kidney, MI-mice, n = 5, read-out: Biodistribution, Kidney.
Where [8] appears, read: liver, MI-mice, n = 5, read-out: Biodistribution, Liver.
The mark [9] stands for this setting: lung, MI-mice, n = 5, read-out: Biodistribution, Lung.
[10] abbreviates: muscle, MI-mice, n = 5, read-out: Biodistribution, Muscle.
[11] abbreviates: spleen, MI-mice, n = 5, read-out: Biodistribution, Spleen.
The mark [12] stands for this setting: thigh bone, MI-mice, n = 5, read-out: Biodistribution, Thigh bone.

As to `CC(=O)N[C@H](Cc1ccc(O)cc1)C(=O)N[C@H](CCC(=O)O)C(=O)N[C@H](CCC(=O)O)C(=O)N[C@H](CCC(=O)O)C(=O)N[C@H](CCC(=O)O)C(=O)N[C@H](CCC(=O)O)C(=O)N[C@H](CCC(=O)O)C(=O)N[C@H](CCC(=O)O)C(=O)N[C@H](CCC(=O)O)C(=O)N[C@H](CCC(=O)O)C(=O)NCCOCC(=O)N[C@@H](CS)C(=O)N[C@@H](CCCNC(=N)N)C(=O)N1CCC[C@H]1C(=O)N[C@@H](C)C(=O)N[C@@H](Cc1c[nH]cn1)C(=O)N[C@@H](CC(C)C)C(=O)N[C@@H](CCCNC(=N)N)C(=O)N[C@@H](CC(=O)O)C(=O)N[C@@H](CO)C(=O)NCC(=O)NCCOCC(=O)N[C@H](CCCNC(=N)N)C(=O)N[C@H](CCCNC(=N)N)C(=O)N[C@H](CCCNC(=N)N)C(=O)N[C@H](CCCNC(=N)N)C(=O)N[C@H](CCCNC(=N)N)C(=O)N[C@H](CCCNC(=N)N)C(=O)N[C@H](CCCNC(=N)N)C(=O)N[C@H](CCCNC(=N)N)C(=O)N[C@H](CCCNC(=N)N)C(=O)N[C@H](CCCCNC(=O)CN1CCN(CC(=O)O)CCN(CC(=O)O)CCN(CC(=O)O)CC1)C(N)=O` [ACPP-B, Ac-y-e9-X-CRPAHLRDSG-X-r9-k(DOTA)-NH2] (Ac-[dY][dE][dE][dE][dE][dE][dE][dE][dE][dE][AEA]CRPAHLRDSG[AEA][dR][dR][dR][dR][dR][dR][dR][dR][dR][dK](DOTA)-NH2), in series [1] (kidney and liver, ^177Lu label, 10 nmol, MI-mice, from Table 1), the tissue to tissue ratio at 5 h came to 14.9. For the same compound, in “in vivo” (iv), the blood half-life is listed as ~ 24 min.

On to `CC(=O)N[C@H](Cc1ccc(O)cc1)C(=O)N[C@H](CCC(=O)O)C(=O)N[C@H](CCC(=O)O)C(=O)N[C@H](CCC(=O)O)C(=O)N[C@H](CCC(=O)O)C(=O)N[C@H](CCC(=O)O)C(=O)N[C@H](CCC(=O)O)C(=O)N[C@H](CCC(=O)O)C(=O)N[C@H](CCC(=O)O)C(=O)N[C@H](CCC(=O)O)C(=O)NCCOCC(=O)N[C@@H](CS)C(=O)N[C@@H](CCCNC(=N)N)C(=O)N1CCC[C@H]1C(=O)N[C@@H](C)C(=O)N[C@@H](Cc1c[nH]cn1)C(=O)N[C@@H](CC(C)C)C(=O)N[C@@H](CCCNC(=N)N)C(=O)N[C@@H](CC(=O)O)C(=O)N[C@@H](CO)C(=O)NCC(=O)NCCOCC(=O)N[C@H](CCCNC(=N)N)C(=O)N[C@H](CCCNC(=N)N)C(=O)N[C@H](CCCNC(=N)N)C(=O)N[C@H](CCCNC(=N)N)C(=O)N[C@H](CCCNC(=N)N)C(=O)N[C@H](CCCNC(=N)N)C(=O)N[C@H](CCCNC(=N)N)C(=O)N[C@H](CCCNC(=N)N)C(=O)N[C@H](CCCNC(=N)N)C(=O)N[C@H](CCCCNC(=O)CN1CCN(CC(=O)O)CCN(CC(=O)O)CCN(CC(=O)O)CC1)C(N)=O` [^177Lu-ACPP-B, metal not drawn] (Ac-[dY][dE][dE][dE][dE][dE][dE][dE][dE][dE][AEA]CRPAHLRDSG[AEA][dR][dR][dR][dR][dR][dR][dR][dR][dR][dK](DOTA)-NH2), for which the tissue uptake at 5 h in series [1] (setting [2]) turned out to be 0.08 ± 0.03 %ID/g; in series [1] (setting [3]), 0.01 ± 0.01 %ID/g; in series [1] (setting [4]) it was 0.43 ± 0.28 %ID/g; in series [1] (setting [5]), 0.75 ± 0.15 %ID/g; in series [1] (setting [6]), 0.11 ± 0.02 %ID/g; in series [1] (setting [7]), 100 ± 13 %ID/g. The tissue uptake at 5 h was 6.76 ± 0.91 %ID/g in series [1] (setting [8]); 0.38 ± 0.09 %ID/g in series [1] (setting [9]); 0.09 ± 0.07 %ID/g in series [1] (setting [10]); 0.77 ± 0.13 %ID/g in series [1] (setting [11]); 1.92 ± 0.73 %ID/g in series [1] (setting [12]). The “K1 of 2-phase exponential decay fit of blood kinetics” value in “in vivo” was found to be 1.99 min⁻¹. Also, in the series “in vivo”, the “K2 of 2-phase exponential decay fit of blood kinetics” value amounted to 27.1 min⁻¹. In addition, the tissue uptake in “in vivo” (iv, Span1 of 2-phase exponential decay fit of blood kinetics) amounted to 2.61 %ID/g; in the series “in vivo” (iv, Span2 of 2-phase exponential decay fit of blood kinetics), 7.35 %ID/g.

In the case of `CC(C)C[C@H](N)C(=O)N[C@@H](CCCNC(=N)N)C(=O)N[C@@H](CC(=O)O)C(=O)N[C@@H](CO)C(=O)NCC(=O)NCCOCC(=O)N[C@H](CCCNC(=N)N)C(=O)N[C@H](CCCNC(=N)N)C(=O)N[C@H](CCCNC(=N)N)C(=O)N[C@H](CCCNC(=N)N)C(=O)N[C@H](CCCNC(=N)N)C(=O)N[C@H](CCCNC(=N)N)C(=O)N[C@H](CCCNC(=N)N)C(=O)N[C@H](CCCNC(=N)N)C(=O)N[C@H](CCCNC(=N)N)C(=O)N[C@H](CCCCNC(=O)CN1CCN(CC(=O)O)CCN(CC(=O)O)CCN(CC(=O)O)CC1)C(N)=O` [^177Lu-CPP-B, metal not drawn] (H-LRDSG[AEA][dR][dR][dR][dR][dR][dR][dR][dR][dR][dK](DOTA)-NH2), the tissue uptake at 5 h in series [1] (setting [2]) stood at 0.14 ± 0.06 %ID/g; in series [1] (setting [3]), 0.01 ± 0.01 %ID/g; in series [1] (setting [4]), 0.16 ± 0.07 %ID/g; in series [1] (setting [5]), 1.69 ± 0.5 %ID/g; in series [1] (setting [6]), 0.32 ± 0.11 %ID/g; in series [1] (setting [7]), 10.1 ± 1.61 %ID/g. The tissue uptake at 5 h in series [1] (setting [8]) stood at 33.2 ± 3.98 %ID/g; in series [1] (setting [9]), 0.67 ± 0.25 %ID/g; in series [1] (setting [10]) it was 0.1 ± 0.02 %ID/g; in series [1] (setting [11]), 4.17 ± 0.82 %ID/g; in series [1] (setting [12]) it was 2.61 ± 0.25 %ID/g.
